39 compounds from US20250177396A1, “POLO-LIKE KINASE 4 (PLK4) INHIBITORS, PHARMACEUTICAL COMPOSITIONS, METHODS OF PREPARATION AND USES THEREOF” (Repare Therapeutics Inc., priority 2022, published 2025) can be followed below.

SMILES strings stand for the structures.

The test addresses T1, PLK4 (Homo sapiens, UniProt O00444).
T1 construct: expressed in transfected cells; host or cells: HEK293 T cells (ATCC CRL-3216)
T1 sequence (O00444 1-970): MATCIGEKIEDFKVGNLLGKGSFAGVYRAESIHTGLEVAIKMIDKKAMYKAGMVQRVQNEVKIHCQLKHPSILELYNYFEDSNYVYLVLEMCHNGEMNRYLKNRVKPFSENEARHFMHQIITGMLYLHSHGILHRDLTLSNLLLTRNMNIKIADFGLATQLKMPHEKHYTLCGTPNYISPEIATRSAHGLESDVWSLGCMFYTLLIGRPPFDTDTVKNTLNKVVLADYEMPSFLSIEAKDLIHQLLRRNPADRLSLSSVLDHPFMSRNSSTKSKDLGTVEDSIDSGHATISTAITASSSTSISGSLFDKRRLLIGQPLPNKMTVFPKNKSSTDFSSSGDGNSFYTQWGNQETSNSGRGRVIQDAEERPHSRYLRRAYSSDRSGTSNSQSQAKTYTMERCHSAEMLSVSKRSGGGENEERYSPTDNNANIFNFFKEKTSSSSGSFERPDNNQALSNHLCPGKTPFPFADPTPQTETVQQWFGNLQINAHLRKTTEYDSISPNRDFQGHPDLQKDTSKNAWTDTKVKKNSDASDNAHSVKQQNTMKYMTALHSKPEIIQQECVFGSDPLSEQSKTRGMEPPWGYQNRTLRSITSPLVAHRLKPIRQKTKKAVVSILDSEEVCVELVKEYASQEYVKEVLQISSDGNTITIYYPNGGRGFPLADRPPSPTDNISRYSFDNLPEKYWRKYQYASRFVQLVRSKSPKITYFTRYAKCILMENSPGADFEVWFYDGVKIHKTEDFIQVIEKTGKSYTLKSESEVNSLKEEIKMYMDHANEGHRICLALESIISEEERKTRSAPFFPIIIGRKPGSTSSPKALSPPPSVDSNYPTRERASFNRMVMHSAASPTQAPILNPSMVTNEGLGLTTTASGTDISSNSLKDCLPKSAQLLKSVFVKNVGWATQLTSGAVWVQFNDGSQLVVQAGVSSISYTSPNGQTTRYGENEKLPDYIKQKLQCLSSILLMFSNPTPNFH
In words: PLK4 NanoBRET target engagement assay. The format is binding. As to conditions: HEK293 T cells transfected with PLK4 NanoLuc fusion vector; K-5 tracer; 2 hrs incubation. How it is done: To determine the affinity of Compounds described herein in the PLK4 NanoBRET target engagement assay, HEK293 T cells (ATCC Product Number CRL-3216) are first transfected with the PLK4 NanoLuc fusion vector DNA and Transfection carrier DNA using the Fugene HD Transfection reagent in Opti-MEM No Phenol Red buffer. After an overnight incubation in a 37° C./5% CO2 incubator, the transfected HEK293 T cells are trypsinized, counted, and resuspended in Opti-MEM No Phenol Red buffer at a concentration of 200000 cells/mL. White 96-well plates are then plated with 85 μL of cells (17000 cells/well) to which 5 μL of the 20×K-5 tracer solution diluted in tracer dilution buffer is added. Finally, 10 μL of the 10× compounds are added and the plates and then incubated in a 37° C./5% CO2 incubator for 2 hrs. After the incubation, a 50 uL 3× solution of the substrate/inhibitor mix is added to the cells. The plate is then transferred in the Envision plate reader where the Acceptor emission (610 nm) and the Donor emission (450 nm) are measured.
The IC50 of compounds is determined as follows: • 1. The ratio between the Acceptor emission (610 nm)/Donor emission (450 nm) is calculated. • 2. This ratio is then multiplied by 1000 to obtain the mBRET units (multiplying by 1000 is an arbitrary step that simply makes the data easier to interpret; it has no impact on the data set itself) • 3. The mBRET units are then used in Scigilian Analyze software (https://analyze.scigilian.io) to determine the IC50 value using a 4-parameter fit analysis.
In general terms: Bioluminescence resonance energy transfer reports proximity on the nanometre scale.
Usually IC50 stands for the concentration needed to halve the response being measured. Low values mean higher potency, high ones lower potency. Compound `Cc1cc(Nc2nc(N(C)c3ccc(S(C)(=O)=O)cc3F)nc(-c3cnn(C)c3)c2OC2CC2)n[nH]1` [Compound 344, 5-cyclopropoxy-N^2-(2-fluoro-4-(methylsulfonyl)phenyl)-N^2-methyl-N^4-(5-methyl-1H-pyrazol-3-yl)-6-(1-methyl-1H-pyrazol-4-yl)pyrimidine-2,4-diamine] displayed an IC50 of 73 nM. This lies in the double-digit nanomolar range.
To `Cc1cn(-c2nc(N(C)c3ccc(S(C)(=O)=O)cc3F)nc(Nc3cc(C)[nH]n3)c2C2CC2)cn1` [Compound 107] belongs 120 nM.
To `Cc1cc(Nc2nc(N(C)c3c(F)cc(S(C)(=O)=O)cc3F)nc(-c3ncn(C)c3C#N)c2C2CC2)n[nH]1` [Compound 173] belongs 360 nM; to `Cc1cc(Nc2nc(N(C)c3c(F)cc(S(C)(=O)=O)cc3F)nc(-c3cn(C(CO)CO)nc3C)c2C2CC2)n[nH]1` [Compound 177], 38 nM.
The compound `COc1c(Nc2cc(C)[nH]n2)nc(N(C)c2ccc(S(=O)(=O)C3CC3)cc2F)nc1-c1cnn(C)c1` [Compound 7, N^2-(4-(cyclopropylsulfonyl)-2-fluorophenyl)-5-methoxy-N^2-methyl-N^4-(5-methyl-1H-pyrazol-3-yl)-6-(1-methyl-1H-pyrazol-4-yl)pyrimidine-2,4-diamine] had an IC50 of 65 nM.
Compound `Cc1cc(Nc2nc(N(C)c3c(F)cc(S(C)(=O)=O)cc3F)nc(-c3cnc4n3CCC4)c2C2CC2)n[nH]1` [Compound 183] showed a concentration for half-maximal inhibition (IC50) of 13 nM.
To `Cc1cc(Nc2nc(N(C)c3c(F)cc(S(C)(=O)=O)cc3F)nc(-c3ccn(CCO)n3)c2C2CC2)n[nH]1` [Compound 169] belongs 4 nM.
To `[2H]C([2H])([2H])n1cc(-c2nc(N(C)c3c(F)cc(S(C)(=O)=O)cc3F)nc(Nc3cc(C)[nH]n3)c2C2CC2)c(C)n1` [Compound 152] belongs 5 nM.
The figure for `Cc1cc(Nc2nc(N(C)c3ccc(S(C)(=O)=O)cc3F)nc(-c3cn(C4CC4)cn3)c2C2CC2)n[nH]1` [Compound 208] is 9 nM; for `CCS(=O)(=O)c1ccc(N(C)c2nc(Nc3cc(C)[nH]n3)c(OC)c(-c3cnn(C)c3)n2)cc1` [Compound 70] it is 170 nM.
On to `Cc1cc(Nc2nc(N(C)c3c(F)cc(S(C)(=O)=O)cc3F)nc(-c3cn(C)nc3C(F)F)c2C2CC2)n[nH]1` [Compound 149], for which the IC50 was 6 nM.
To `Cc1cc(Nc2nc(N(C)c3c(F)cc(S(C)(=O)=O)cc3F)nc(-c3cnn(CCS(C)(=O)=O)c3)c2C2CC2)n[nH]1` [Compound 172] belongs 6 nM; to `Cc1cc(Nc2nc(N(C)c3cc(F)c(S(C)(=O)=O)cc3F)nc(-c3cn4c(n3)CCC4)c2C2CC2)n[nH]1` [Compound 197], 24 nM.
The compound `Cc1cc(Nc2nc(N(C)c3ccc(S(C)(=O)=O)cc3F)nc(-c3cnn(C)c3)c2C)n[nH]1` [Compound 42] displayed an IC50 of 14 nM.
The figure for `COCc1nc(-c2nc(N(C)c3c(F)cc(S(C)(=O)=O)cc3F)nc(Nc3cc(C4CC4)[nH]n3)c2C2CC2)cn1C` [Compound 272] is 3 nM.
The figure for `Cc1cc(Nc2nc(N(C)c3ccc(S(C)(=O)=O)cc3F)nc(N3CCCC(S(C)(=O)=O)C3)c2C2CC2)n[nH]1` (stereo not drawn) [Compound 111, 5-cyclopropyl-N^2-(2-fluoro-4-(methylsulfonyl)phenyl)-N^2-methyl-N^4-(5-methyl-1H-pyrazol-3-yl)-6-(3-(methylsulfonyl)piperidin-1-yl)pyrimidine-2,4-diamine] is 43 nM.
The figure for `Cc1cc(Nc2nc(N(C)c3c(F)cc(S(C)(=O)=O)cc3F)nc(-c3cc(C(N)=O)n(C)n3)c2C2CC2)n[nH]1` [Compound 321] is 11 nM.
Turning to `CNC(=O)c1c(-c2nc(N(C)c3c(F)cc(S(C)(=O)=O)cc3F)nc(Nc3cc(C)[nH]n3)c2C2CC2)cnn1C` [Compound 261], the IC50 was 8 nM.
Consider `Cc1cc(Nc2nc(N(C)c3ccc(S(C)(=O)=O)cc3Br)nc(-c3cnn(C)c3)c2C2CC2)n[nH]1` [Compound 53], for which half-maximal inhibition (IC50) was put at 63 nM.
In turn, `Cc1cc(Nc2nc(N(C)c3c(F)cc(S(C)(=O)=O)cc3F)nc(-c3cn(C)c(C#N)n3)c2C2CC2)n[nH]1` [Compound 204] gave a half-maximal inhibitory concentration (IC50) of 8 nM.
The compound `[2H]C([2H])([2H])OCc1nc(-c2nc(N(C)c3c(F)cc(S(C)(=O)=O)cc3F)nc(Nc3cc(C)[nH]n3)c2C2CC2)cn1C` [Compound 237] displayed an IC50 of 5 nM.
To `Cc1cc(Nc2nc(N(C)c3c(F)cc(S(C)(=O)=O)cc3F)nc(-c3cn(C)nc3C3CC3)c2C2CC2)n[nH]1` [Compound 198] belongs 4 nM; to `Cc1cc(Nc2nc(N(C)c3c(F)cc(S(C)(=O)=O)cc3F)nc(-c3cn(CCO)cn3)c2C2CC2)n[nH]1` [Compound 225], 89 nM; to `Cc1cc(Nc2nc(N(C)c3c(F)cc(C(=O)N4CCC4)cc3F)nc(-c3cn(C)cn3)c2C2CC2)n[nH]1` [Compound 359], 65 nM.
To `COc1c(Nc2cc(C)[nH]n2)nc(N(C)c2ccc(C#N)cc2F)nc1-c1cnn(C)c1` [Compound 63] belongs 280 nM; to `Cc1cc(Nc2nc(N(C)c3c(F)cc(N4CCS(=O)(=O)CC4)cc3F)nc(-c3cn(C)cn3)c2C2CC2)n[nH]1` [Compound 357], 300 nM.
`Cc1cc(Nc2nc(N(C)c3c(F)cc(S(C)(=O)=O)cc3F)cc(-c3cnn(C)c3)c2C2CC2)n[nH]1` [Compound 92] returned an IC50 of 53 nM.
The figure for `Cc1cc(Nc2nc(N(C)c3c(F)cc(S(C)(=O)=O)cc3F)nc(-c3ccn(C)c(=O)c3)c2C2CC2)n[nH]1` [Compound 205] is 22 nM; for `Cc1cc(Nc2nc(N(C)c3c(F)cc(S(C)(=O)=O)cc3F)nc(-c3cnn([C@H]4C[C@H](O)C4)c3)c2C2CC2)n[nH]1` [Compound 253] it is 7 nM; for `COc1c(Nc2cc(C)[nH]n2)nc(N(C)c2ccc(CN3CCOC3=O)cc2)nc1-c1cnn(C)c1` [Compound 46] it is 110 nM.
To `Cc1cc(Nc2nc(N(C)c3c(F)cc(S(C)(=O)=O)cc3F)nc(-c3cn(C4COC4)nc3C)c2C2CC2)n[nH]1` [Compound 180] belongs 4 nM.
As to `Cc1cc(Nc2nc(N(C)c3c(F)cc(S(C)(=O)=O)cc3F)nc(-c3cn(C)nc3C#N)c2C2CC2)n[nH]1` [Compound 115], the IC50 turned out to be 22 nM.
For `Cc1cc(Nc2nc(N(C)c3c(F)cc(N4CCOC4=O)cc3F)nc(-c3cn(C)cn3)c2C2CC2)n[nH]1` [Compound 353], half-maximal inhibition (IC50) was put at 6 nM.
To `COCCn1cc(-c2nc(N(C)c3cc(F)c(S(C)(=O)=O)cc3F)nc(Nc3cc(C)[nH]n3)c2C2CC2)c(C)n1` [Compound 221] belongs 12 nM.
To `Cc1cc(Nc2nc(N(C)c3cc(F)c(S(C)(=O)=O)cc3F)nc(-c3cn(C4CC4)cn3)c2C2CC2)n[nH]1` [Compound 207] belongs 6 nM.
The figure for `COc1c(Nc2cc(C)[nH]n2)nc(Oc2ccc(S(C)(=O)=O)cc2Br)nc1-c1cnn(C)c1` [Compound 33] is 1100 nM; for `CNC(=O)CN(c1nc(Nc2cc(C)[nH]n2)c(OC)c(-c2cnn(C)c2)n1)c1ccc(S(C)(=O)=O)cc1F` [Compound 85] it is 9200 nM; for `COc1c(Nc2cc(C)[nH]n2)nc(Nc2ccc(S(C)(=O)=O)cc2)nc1-c1cnn(C)c1` [Compound 37] it is 550 nM.
Turning to `Cc1cc(Nc2nc(N(C)c3c(F)cc(S(C)(=O)=O)cc3F)nc(-c3ccn(C)n3)c2C2CC2)n[nH]1` [Compound 13, 5-cyclopropyl-N^2-(2,6-difluoro-4-(methylsulfonyl)phenyl)-N^2-methyl-6-(1-methyl-1H-pyrazol-3-yl)-N^4-(5-methyl-1H-pyrazol-3-yl)pyrimidine-2,4-diamine], the half-maximal inhibitory concentration (IC50) amounted to 5 nM. Against the preceding compound, the IC50 is about 110-fold lower.
